# Assays:
# [1] = test system: Coxsackievirus; test: Effective concentration required to inhibit Coxsackie B3 virus induced cytopathicity in vero cells; format: functional, organism-based
# [2] = test system: Human alphaherpesvirus 1; test: Effective concentration required to inhibit herpes simplex virus type 1 Kos strain induced cytopathicity in Hel cells; format: functional, organism-based; settings: Human alphaherpesvirus 1, HEL
EC50 [1],EC50 [2],SMILES
> 200 µM,> 200 µM,Nc1ncnc2c1ncn2[C@H]1CCC[C@@H](CO)C1 (racemic)
5.84 µM,,N#Cc1cc([N+](=O)[O-])ccc1Oc1ccc(Cl)c(Cl)c1
> 200 µM,63 µM,Cc1cn([C@H]2C=CC[C@@H](CO)C2)c(=O)[nH]c1=O (racemic)
> 200 µM,> 200 µM,Nc1ncnc2c1ncn2[C@H]1C=CC[C@@H](CO)C1 (racemic)
> 200 µM,> 200 µM,Nc1nc(O)c2ncn([C@H]3C=CC[C@@H](CO)C3)c2n1 (racemic)
> 200 µM,62 µM,Nc1ccn([C@H]2CCC[C@@H](CO)C2)c(=O)n1 (racemic)
168 µM,> 200 µM,Cc1cn([C@H]2CCC[C@@H](CO)C2)c(=O)[nH]c1=O (racemic)
> 200 µM,> 200 µM,Nc1ccn([C@H]2C=CC[C@@H](CO)C2)c(=O)n1 (racemic)

SMILES,EC50 [1],EC50 [2]
Nc1nc2c(ncn2COCCO)c(=O)[nH]1 [ACYCLOVIR],,0.32 µM
Nc1nc2c(ncn2COC(CO)CO)c(=O)[nH]1 [GANCICLOVIR],,0.06 µM

# From ChEMBL document CHEMBL1141175, “Synthesis and antiviral evaluation of cis-substituted cyclohexenyl and cyclohexanyl nucleosides” (J Med Chem, 2005)
